The values below come from PubChem BioAssay (NCI).

SMILES strings stand for the structures.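 96-well plates; 48 h exposure; 5 concentrations. Endpoints by linear interpolation between flanking doses. Not reached: highest tested concentration assigned. The concentration for 50% growth inhibition is given as GI50. TGI: total growth inhibition.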

Holding throughout (assay): inhibition of tumour cell growth, NCI panel, 48 h
The test system of assay [1] is 786-0 renal.
The test system of assay [2] is ACHN renal.
Assay [3] relates to K-562 leukemia.
Assay [4] concerns MDA-MB-231 breast.
The subject of assay [5] is SK-MEL-2 melanoma.
The test system of assay [6] is SK-OV-3 ovarian.
Assay [7] concerns SN12C renal.
For assay [8], the system named is UACC-62 melanoma.
Assay [9] relates to UO-31 renal.
Assay [10] has as its system NCI-H23 lung.

Take `Cc1nc2ccccn2c1NC(=O)NN1C(=O)CSC1c1ccc(Cl)cc1` (stereo unspecified): the GI50 in assay [1], in assay [2], in [3], in assay [4], in assay [5] and in assay [6] was greater than 100 µM throughout. The GI50 in [7], in assay [8] and in assay [9] was greater than 100 µM in each case. Moreover, the TGI in assay [1], in assay [2], in [3], in assay [4], in assay [5] and in [6] was greater than 100 µM in each case. For the same compound, the TGI in assay [7], in assay [8] and in assay [9] was greater than 100 µM each time.

In the case of `Oc1ccc2ccccc2c1CCc1c(O)ccc2ccccc12`, the TGI in assay [1] was found to be 34.9 µM; in [2], 30 µM; in [3], 24.9 µM; in assay [4] it was 27.5 µM; in [10] it was 26.1 µM; in assay [6] it was 29.4 µM. In addition, the TGI in assay [7] is 23.3 µM; in assay [8], 21.2 µM.

On to `O=C(NC1CCN(Cc2ccccc2)CC1)c1cc(-c2cccnc2)nc2ccc(Cl)cc12`, for which the GI50 in assay [1] is 4.63 µM; in assay [2], 2.36 µM; in [3], 3.43 µM; in assay [4] it was 2.47 µM; in assay [10], 18 µM; in [6], 14.1 µM. Further, the GI50 in assay [7] was 5.2 µM; in assay [8], 17.4 µM; in assay [9] it was 4.24 µM. The TGI in assay [1] is 17.7 µM; in assay [2], 6.54 µM; in [3], 76.8 µM; in [4] it was 13.1 µM; in assay [10], greater than 100 µM; in [6] it was 42.7 µM. In addition, the TGI in assay [7] is 29.2 µM; in assay [8], greater than 100 µM; in [9] it was 21.4 µM.

Regarding `N#CCc1c(F)c(F)c(F)c(F)c1F`, the TGI in assay [1], in assay [2], in assay [3], in assay [4], in assay [10] and in assay [6] was greater than 100 µM in each case. In addition, the TGI in [7], in assay [8] and in assay [9] was greater than 100 µM in each case.

Turning to `COc1ccccc1-n1cnc(N)c1C(=O)c1cc(OC)c(OC)c(OC)c1`, the GI50 in assay [1] was 5.41 µM; in assay [2] it was 5.19 µM; in assay [3] it was 2.12 µM; in [4] it was 5.93 µM; in assay [10] it was 9.5 µM; in assay [7], 5.65 µM. In addition, the GI50 in assay [8] was 1.88 µM; in assay [9], 4.21 µM. For the same compound, the TGI in assay [1], in assay [2], in assay [3], in assay [4], in assay [10] and in assay [7] was greater than 100 µM in each case. In addition, the TGI in [8] and in assay [9] was greater than 100 µM throughout.

With `OCC1NC(COC2OC(CO)C(O)C(O)C2O)C(O)C(O)C1O` (stereo unspecified), the TGI in assay [1], in assay [2], in [3], in [4], in [10] and in assay [5] was greater than 100 µM each time. In addition, the TGI in assay [7], in assay [8] and in assay [9] was greater than 100 µM in each case.

For the compound `C=C1CCC2CC1C(C(=O)c1c[nH]c3ccccc13)=NC2(C)C` (stereo unspecified), the TGI in assay [1], in [2], in [3], in assay [4], in assay [10] and in assay [6] was greater than 100 µM each time. Further, the TGI in [7], in [8] and in assay [9] was greater than 100 µM in each case.

For the compound `Cc1cc(S(=O)(=O)/N=C(\N)Nc2cccc(O)c2)c(SCc2ccccc2)cc1Cl`, the GI50 in assay [1] is 16.9 µM; in assay [2], 18.2 µM; in [3] it was 8.28 µM; in assay [4], 16.8 µM; in assay [5] it was 15.7 µM; in [6], 19.1 µM. Moreover, the values for the GI50 in [7], in [8] and in [9] were 17.6 µM, 14.1 µM and 10.8 µM, respectively. Also, the TGI in [1] is 33.5 µM; in assay [2] it was 39.4 µM; in assay [3], greater than 100 µM; in assay [4], 41.2 µM; in [5] it was 34.9 µM; in [6] it was 37.9 µM. Also, the TGI in assay [7] came out at 38.2 µM; in assay [8], 30.2 µM; in assay [9], 27.6 µM.

Turning to `OCC#CCOCC#Cc1ccccc1C#CCOCC#CCO`, the GI50 in assay [1] was 34 µM; in assay [2] it was 27.8 µM; in assay [3] it was 27 µM; in [4], 30.2 µM; in assay [10] it was 36 µM; in assay [5] it was greater than 100 µM. The GI50 in [7] was 26.7 µM; in assay [8], 25.8 µM; in assay [9], greater than 100 µM. The TGI in assay [1] is greater than 100 µM; in [2], 85.8 µM; in assay [3] it was 90 µM; in assay [4] it was 83.4 µM; in assay [10], greater than 100 µM; in assay [5], greater than 100 µM. Also, the TGI is 80.9 µM in assay [7], 75.1 µM in assay [8] and greater than 100 µM in assay [9].

For the compound `CC(=O)Nc1ccccc1-c1nc2ccccc2nc1-c1ccccc1`, the TGI in assay [1], in assay [2], in assay [3], in assay [10], in [5] and in [6] was greater than 100 µM in each case. In addition, the TGI in assay [7], in assay [8] and in assay [9] was greater than 100 µM in each case.

Turning to `C[N+]1=C(c2cccnc2/C=N/O)OCC1(C)C`, the TGI in [1], in assay [2], in [3], in assay [10], in [5] and in assay [6] was greater than 100 µM each time. Also, the TGI in [7], in assay [8] and in assay [9] was greater than 100 µM each time.
